± gives the expanded uncertainty stated by the source.

The nature of data set [1]: relative permittivity at zero frequency (dimensionless). The settings on record: 300.15 K; 101.33 kPa; Liquid; impedance analyzer.
For data set [2] the following is noted: 300.15 K; 101.33 kPa; Liquid; Pycnometric method.
A short description of data set [3]: refractive index (Na D-line) (dimensionless). The settings on record: 300.15 K; 101.33 kPa; Liquid; Standard Abbe refractometry.

As usually defined, the mass density is mass per unit of volume. Usually refractive index stands for a measure of how strongly the sample bends light. Regarding `CNc1ccccc1` [N-methylaniline], the “relative permittivity at zero frequency” value in data set [1] was found to be 5.878 ± 0.001. Further, the mass density in data set [2] amounted to 979.8 ± 0.6 kg/m3. In data set [3], the refractive index turned out to be 1.566 ± 0.001.
Take `CCCO` [propan-1-ol]: the “relative permittivity at zero frequency” value in data set [1] was determined as 20.678 ± 0.001. Further, the mass density in data set [2] is given as 798.5 ± 0.4 kg/m3. In data set [3], the refractive index is on record as 1.391 ± 0.001.
For `CC(C)O` [propan-2-ol], in that order: 18.562 ± 0.001, 779.2 ± 0.4 kg/m3 and 1.383 ± 0.001.

For the origin of these results see the NIST ThermoML archive (doi:10.1016/j.jct.2011.10.028).
